{
  "source": "paper PMC5557681",
  "about": "(Journal of veterinary cardiology : the official journal of …, 2017)",
  "key": {"[1]": {"experiment": "Analyte stability during storage in citrate or EDTA treated feline plasma", "format": "physicochemical", "details": "for Time stable at room temperature: EDTA treated feline plasma; for Deviation from nominal concentration (%): EDTA treated plasma, spike CAM-D 100, clopidogrel 38.3, acid 500 ng/mL; for Time stable at −80°C: citrate treated feline plasma; for Time stable at room temperature (abstract) / Time stable at −80°C (abstract): feline plasma"}, "[2]": {"details": "in vivo, po"}, "in vivo": {"experiment": "in vivo", "details": "po, 18.75 mg"}, "[3]": {"details": "cited from earlier work"}, "[4]": {"details": "humans; cited from earlier work"}, "[5]": {"test_system": "feline cardiogenic thromboembolism", "details": "cats; cited from earlier work"}, "[6]": {"test_system": "ADP-induced platelet aggregation", "details": "cited from earlier work"}},
  "note": "Structures can show the parent of a compound that is named as a salt. Where two headings read alike, the source gives them in different places.",
  "data": [
    {"smiles": "COC(=O)[C@H](c1ccccc1Cl)N1CCc2sccc2C1", "note": "[Clopidogrel, S-(+)-clopidogrel hydrogen sulfate, reference compound]", "values": [
      {"measurement": "Time stable at room temperature", "setting": "[1]", "result": "at least 1 week"},
      {"measurement": "Deviation from nominal concentration (%)", "setting": "[1]; 4°C, 6 h", "result": "−7", "unit": "%"},
      {"measurement": "Deviation from nominal concentration (%)", "setting": "[1]; RT, 1 wk", "result": 6, "unit": "%"},
      {"measurement": "Deviation from nominal concentration (%)", "setting": "[1]; RT, 24 h", "result": "−2", "unit": "%"},
      {"measurement": "Deviation from nominal concentration (%)", "setting": "[1]; RT, 48 h", "result": "−5", "unit": "%"},
      {"measurement": "Deviation from nominal concentration (%)", "setting": "[1]; RT, 72 h", "result": "−1", "unit": "%"},
      {"measurement": "Time stable at −80°C", "setting": "[1]", "result": "at least 9 months"},
      {"measurement": "Time stable at room temperature (abstract)", "setting": "[1]", "result": 1, "unit": "week"},
      {"measurement": "Time stable at −80°C (abstract)", "setting": "[1]", "result": 9, "unit": "months"},
      {"measurement": "AUC that was extrapolated", "setting": "[2]; cat", "result": "< 2", "unit": "%"},
      {"measurement": "AUClast (0 to 24hrs)", "setting": "[2]; 18.75 mg", "result": 225, "unit": "ng·h/mL"},
      {"measurement": "Cmax", "setting": "[2]; 18.75 mg", "result": 144, "unit": "ng/mL"},
      {"measurement": "t1/2 (elimination half-life)", "setting": "[2]; 18.75 mg", "result": 5.2, "unit": "h"},
      {"measurement": "AUC(0-t)", "setting": "in vivo; AUClast (0 to 24hrs)", "result": 374, "unit": "ng·h/mL"},
      {"measurement": "Cmax", "setting": "in vivo; Cmax", "result": 134, "unit": "ng/mL"},
      {"measurement": "half-life", "setting": "in vivo; t1/2 (elimination half-life)", "result": 5.4, "unit": "h"},
      {"measurement": "Cmax in humans", "setting": "[3]; healthy humans / people", "result": 20, "unit": "ng/mL"},
      {"measurement": "Tmax in people", "setting": "[3]; post administration", "result": "around 1 hour"},
      {"measurement": "Proportion metabolized in the liver to inactive clopidogrel carboxylic acid", "setting": "[4]", "result": 85, "unit": "%"},
      {"measurement": "Prevention of feline cardiogenic thromboembolism", "setting": "[5]", "result": "superior to aspirin"}
    ]},
    {"smiles": "COC(=O)C(c1ccccc1Cl)N1CCC(S)C(=CC(=O)O)C1", "note": "(stereo not shown) [H4]", "values": [
      {"measurement": "Antiplatelet activity relative to H2", "setting": "[6]", "result": "about twice the activity of H2"}
    ]},
    {"smiles": "O=C(O)[C@H](c1ccccc1Cl)N1CCc2sccc2C1", "note": "[Clopidogrel carboxylic acid, clopidogrel carboxylic acid]", "values": [
      {"measurement": "Time stable at room temperature", "setting": "[1]", "result": "at least 1 week"},
      {"measurement": "Deviation from nominal concentration (%)", "setting": "[1]; 4°C, 6 h", "result": "−6", "unit": "%"},
      {"measurement": "Deviation from nominal concentration (%)", "setting": "[1]; RT, 1 wk", "result": "−1", "unit": "%"},
      {"measurement": "Deviation from nominal concentration (%)", "setting": "[1]; RT, 24 h", "result": "−2", "unit": "%"},
      {"measurement": "Deviation from nominal concentration (%)", "setting": "[1]; RT, 48 h", "result": "−10", "unit": "%"},
      {"measurement": "Deviation from nominal concentration (%)", "setting": "[1]; RT, 72 h", "result": 1, "unit": "%"},
      {"measurement": "Time stable at −80°C", "setting": "[1]", "result": "at least 9 months"},
      {"measurement": "Time stable at room temperature (abstract)", "setting": "[1]", "result": 1, "unit": "week"},
      {"measurement": "Time stable at −80°C (abstract)", "setting": "[1]", "result": 9, "unit": "months"},
      {"measurement": "AUC that was extrapolated", "setting": "[2]", "result": "15–20%"},
      {"measurement": "Cmax and AUC values compared with clopidogrel and CAM-D", "setting": "[2]; 18.75 mg", "result": "over 100 fold"},
      {"measurement": "Cmax values (range of both cats)", "setting": "[2]; 18.75 mg", "result": "2,900–3,300 ng/mL"},
      {"measurement": "Elimination half-life compared with clopidogrel and CAM-D", "setting": "[2]; 18.75 mg", "result": "about 2 times"},
      {"measurement": "Time post administration at which Cmax was reached (both cats)", "setting": "[2]; 18.75 mg", "result": "1.5 to 2", "unit": "h"}
    ]},
    {"smiles": "COC(=O)C(c1ccccc1Cl)N1CCC2SC(=O)C=C2C1.Cl", "note": "(stereo not shown) [2-oxo-clopidogrel, 2-oxo-clopidogrel hydrochloride]", "values": [
      {"measurement": "Stability in feline plasma (in words)", "setting": "[1]; all storage temperatures tested, EDTA and citrate treated plasma", "result": "unstable"},
      {"measurement": "Decrease from nominal concentration within 6 hours", "setting": "[1]; all storage temperatures tested, EDTA treated and citrate treated plasma, data not shown", "result": "> 25", "unit": "%"}
    ]}
  ]
}
